Measurements from the NIST ThermoML archive (doi:10.1021/je049672l).
Values joined by “and” are separate entries in the source; they are usually repeats but may differ in a detail not shown here. Equal entries are not always repeated. ± gives the expanded uncertainty stated by the source.

Conditions: for mass density: Vibrating tube method; for vapor or sublimation pressure: Closed cell (Static) method

CCCC [butane]
Fluid (supercritical or subcritical phases)
Conditions | mass density [kg/m3]
240 K, 486 kPa | 635.96 ± 0.26
240 K, 1007.3 kPa | 636.47 ± 0.26
240 K, 1510.1 kPa | 636.95 ± 0.27
240 K, 2000.1 kPa | 637.42 ± 0.27
240 K, 2570.2 kPa | 637.97 ± 0.28
240 K, 3029.5 kPa | 638.41 ± 0.28
240 K, 3512.2 kPa | 638.87 ± 0.28
240 K, 4001.2 kPa | 639.35 ± 0.29
240 K, 4487.8 kPa | 639.8 ± 0.29
240 K, 5029 kPa | 640.31 ± 0.3
240 K, 5540.8 kPa | 640.78 ± 0.3
240 K, 5990.8 kPa | 641.21 ± 0.31
240 K, 6517.3 kPa | 641.67 ± 0.31
240 K, 7115.6 kPa | 642.22 ± 0.32
260 K, 481 kPa | 615.74 ± 0.26
260 K, 998.4 kPa | 616.36 ± 0.27
260 K, 1521.8 kPa | 616.98 ± 0.27
260 K, 2020.3 kPa | 617.55 ± 0.28
260 K, 2488.3 kPa | 618.09 ± 0.28
260 K, 3039.4 kPa | 618.72 ± 0.29
260 K, 3506.9 kPa | 619.26 ± 0.29
260 K, 3997 kPa | 619.8 ± 0.29
260 K, 4494.6 kPa | 620.36 ± 0.3
260 K, 5004.2 kPa | 620.91 ± 0.3
260 K, 5503.1 kPa | 621.46 ± 0.31
260 K, 6003.3 kPa | 622.01 ± 0.31
260 K, 6478.7 kPa | 622.54 ± 0.32
260 K, 6989.2 kPa | 623.08 ± 0.32
280 K, 144.7 kPa | 593.92 ± 0.27
280 K, 173.2 kPa | 593.97 ± 0.27
280 K, 493.9 kPa | 594.44 ± 0.27
280 K, 992 kPa | 595.16 ± 0.27
280 K, 1472.7 kPa | 595.86 ± 0.28
280 K, 1987.6 kPa | 596.59 ± 0.28
280 K, 2465.8 kPa | 597.26 ± 0.29
280 K, 2985.5 kPa | 597.98 ± 0.29
280 K, 3516.7 kPa | 598.71 ± 0.3
280 K, 3974.9 kPa | 599.34 ± 0.3
280 K, 4513.6 kPa | 600.07 ± 0.31
280 K, 4975 kPa | 600.69 ± 0.31
280 K, 5428.9 kPa | 601.3 ± 0.32
280 K, 5929.2 kPa | 601.98 ± 0.32
280 K, 6499.1 kPa | 602.71 ± 0.33
280 K, 7020 kPa | 603.37 ± 0.33
300 K, 268.9 kPa | 571.14 ± 0.27
300 K, 315.1 kPa | 571.23 ± 0.27
300 K, 493.4 kPa | 571.55 ± 0.27
300 K, 992.8 kPa | 572.45 ± 0.28
300 K, 1491.3 kPa | 573.35 ± 0.28
300 K, 2013.4 kPa | 574.26 ± 0.29
300 K, 2499.1 kPa | 575.12 ± 0.29
300 K, 2964 kPa | 575.92 ± 0.3
300 K, 3499.9 kPa | 576.83 ± 0.31
300 K, 3992.8 kPa | 577.66 ± 0.31
300 K, 4525.1 kPa | 578.55 ± 0.32
300 K, 4990.4 kPa | 579.31 ± 0.32
300 K, 5543.6 kPa | 580.23 ± 0.33
300 K, 5951.1 kPa | 580.88 ± 0.33
300 K, 6459.3 kPa | 581.65 ± 0.34
300 K, 7089.3 kPa | 582.62 ± 0.34
320 K, 515.9 kPa | 546.74 ± 0.28
320 K, 1002.9 kPa | 547.89 ± 0.29
320 K, 1502.7 kPa | 549.06 ± 0.29
320 K, 2011.8 kPa | 550.22 ± 0.3
320 K, 2517.1 kPa | 551.36 ± 0.3
320 K, 3010.6 kPa | 552.45 ± 0.31
320 K, 3523.1 kPa | 553.55 ± 0.31
320 K, 4015.6 kPa | 554.6 ± 0.32
320 K, 4017.2 kPa | 554.6 ± 0.32
320 K, 4513.3 kPa | 555.64 ± 0.33
320 K, 4992.8 kPa | 556.63 ± 0.33
320 K, 5473.8 kPa | 557.6 ± 0.34
320 K, 6031 kPa | 558.74 ± 0.34
320 K, 6510.5 kPa | 559.67 ± 0.35
320 K, 6982.1 kPa | 560.62 ± 0.35
340 K, 761.5 kPa | 519.87 ± 0.29
340 K, 791.7 kPa | 519.97 ± 0.29
340 K, 989.9 kPa | 520.64 ± 0.29
340 K, 1519.5 kPa | 522.33 ± 0.3
340 K, 1975.7 kPa | 523.74 ± 0.31
340 K, 2514.4 kPa | 525.36 ± 0.31
340 K, 3012.7 kPa | 526.82 ± 0.32
340 K, 3504.4 kPa | 528.23 ± 0.32
340 K, 4034.7 kPa | 529.7 ± 0.33
340 K, 4437.7 kPa | 530.79 ± 0.33
340 K, 4964.4 kPa | 532.19 ± 0.34
340 K, 5471 kPa | 533.51 ± 0.35
340 K, 5975.4 kPa | 534.78 ± 0.35
340 K, 6451.2 kPa | 535.97 ± 0.36
340 K, 7014.5 kPa | 537.36 ± 0.37
360 K, 1181.7 kPa | 490.31 ± 0.3
360 K, 1215.8 kPa | 490.48 ± 0.3
360 K, 1507.5 kPa | 491.85 ± 0.3
360 K, 2006.4 kPa | 494.12 ± 0.31
360 K, 2493.7 kPa | 496.23 ± 0.32
360 K, 2995.1 kPa | 498.32 ± 0.33
360 K, 3489.7 kPa | 500.29 ± 0.33
360 K, 3993.1 kPa | 502.23 ± 0.34
360 K, 4488.7 kPa | 504.06 ± 0.35
360 K, 4984.1 kPa | 505.83 ± 0.35
360 K, 5504.8 kPa | 507.65 ± 0.36
360 K, 5979.4 kPa | 509.32 ± 0.37
360 K, 6486.7 kPa | 510.96 ± 0.37
360 K, 7012.4 kPa | 512.64 ± 0.38
380 K, 1845.2 kPa | 455.88 ± 0.3
380 K, 1925.7 kPa | 456.51 ± 0.3
380 K, 2007.2 kPa | 457.14 ± 0.3
380 K, 2503.7 kPa | 460.77 ± 0.31
380 K, 3010.6 kPa | 464.17 ± 0.31
380 K, 3502 kPa | 467.25 ± 0.32
380 K, 3999.9 kPa | 470.18 ± 0.33
380 K, 4508.9 kPa | 473 ± 0.34
380 K, 5015.7 kPa | 475.66 ± 0.35
380 K, 5511.1 kPa | 478.12 ± 0.35
380 K, 6013.8 kPa | 480.51 ± 0.36
380 K, 6534.9 kPa | 482.88 ± 0.37
380 K, 6978 kPa | 484.82 ± 0.38

Liquid
Conditions | mass density | vapor or sublimation pressure
240 K | 634.72 ± 0.26 kg/m3 and 634.79 ± 0.26 kg/m3 | 26.2 ± 2 kPa and 23.9 ± 0.5 kPa
260 K | 615.48 ± 0.26 kg/m3 | 59.9 ± 0.5 kPa
280 K | 593.89 ± 0.27 kg/m3 | 131.5 ± 0.6 kPa
300 K | 571.03 ± 0.27 kg/m3 | 256.4 ± 0.6 kPa
320 K | 546.56 ± 0.28 kg/m3 | 454.8 ± 0.8 kPa
340 K | 520.07 ± 0.29 kg/m3 and 519.84 ± 0.29 kg/m3 | 750.5 ± 1.2 kPa and 751 ± 1.2 kPa
360 K | 490.27 ± 0.29 kg/m3 and 490.24 ± 0.29 kg/m3 | 1168.5 ± 1.8 kPa and 1168.1 ± 1.8 kPa
380 K | 455 ± 0.28 kg/m3 | 1737.4 ± 2.7 kPa
